Laboratory results taken from the supplement of paper PMC10627819.

What was measured:
S. pneumoniae D39V [1] = test: fitness (endpoint OD595 vs no drug) (fraction); higher = more growth
In short: (§1)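 In 384-well plates at 37 °C, cultures began at OD595 0.01 in 30 µl, with 55 µl used for S. pneumoniae. OD595 readings every 30 min for 14 h were corrected by the first reading. Fitness divides the stationary-phase transition optical density by the robust mean of no-drug control wells. The result is capped at 1.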

B. subtilis 168 [2] = test: as above
In short: as §1

S. pneumoniae D39V [3] = test: Bliss interaction score (quartile over a dose matrix) (fitness difference); higher = more antagonism (negative = synergy)
In short: (§2)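 The Bliss score subtracts expected fitness, the product of the single-drug fitness values, from observed fitness. Fitness is plate-normalised OD595 at entry into stationary phase, relative to the robust no-drug mean and capped at 1, with single-drug fitness inferred from combinations. Summaries are quartiles over technical, biological and donor/recipient replicates.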

B. subtilis 168 [4] = test: as above
In short: as §2

S. aureus Newman = test: as above
In short: as §2

S. aureus DSM 20231 = test: as above
In short: as §2
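Wherever Bliss interaction score (quartile over a dose matrix) is given: first quartile when negative (synergy) and third quartile when positive (antagonism).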

COc1cccc2c1C(=O)c1c(O)c3c(c(O)c1C2=O)C[C@@](O)(C(=O)CO)C[C@@H]3O[C@H]1C[C@H](N)[C@H](O)[C@H](C)O1 [Doxorubicin] + CCC(C)C1C(=O)NC(=C)C(=O)NC(C(=O)NC(CSCC(C(=O)N1)NC(=O)/C(=C/C)/NC(=O)C(C(C)CC)N)C(=O)NC2C(SCC(NC(=O)CNC(=O)C3CCCN3C2=O)C(=O)NC(CCCCN)C(=O)NC4C(SCC(NC(=O)CNC(=O)C(NC(=O)C(NC(=O)C(NC(=O)CNC4=O)C)CC(C)C)CCSC)C(=O)NC(CC(=O)N)C(=O)NC(CCSC)C(=O)NC(CCCCN)C(=O)NC5C(SCC6C(=O)NC(C(=O)NC(CSC(C(C(=O)N6)NC(=O)C(NC5=O)C)C)C(=O)NC(CO)C(=O)NC(C(C)CC)C(=O)NC(CC7=CN=CN7)C(=O)NC(C(C)C)C(=O)NC(=C)C(=O)NC(CCCCN)C(=O)O)CC8=CN=CN8)C)C)C)CC(C)C [Nisin]
main component drawn
Settings | fitness
B. subtilis 168 [2], first compound 0.625 µg/mL, partner 0.5 µg/mL | 0.882
B. subtilis 168 [2], first compound 0.625 µg/mL, partner 1 µg/mL | 0.852
B. subtilis 168 [2], first compound 0.625 µg/mL, partner 2 µg/mL | 0.459
B. subtilis 168 [2], first compound 1.25 µg/mL, partner 0.5 µg/mL | 0.821
B. subtilis 168 [2], first compound 1.25 µg/mL, partner 1 µg/mL | 0.83
B. subtilis 168 [2], first compound 1.25 µg/mL, partner 2 µg/mL | 0.567
B. subtilis 168 [2], first compound 2.5 µg/mL, partner 0.5 µg/mL | 0.688
B. subtilis 168 [2], first compound 2.5 µg/mL, partner 1 µg/mL | 0.603
B. subtilis 168 [2], first compound 2.5 µg/mL, partner 2 µg/mL | 0.19
S. pneumoniae D39V [1], first compound 0.25 µg/mL, partner 0.4275 µg/mL | 0.998
S. pneumoniae D39V [1], first compound 0.25 µg/mL, partner 0.855 µg/mL | 0.991
S. pneumoniae D39V [1], first compound 0.25 µg/mL, partner 1.6 µg/mL | 0.0164
S. pneumoniae D39V [1], first compound 0.25 µg/mL, partner 1.71 µg/mL | 0.0746
S. pneumoniae D39V [1], first compound 0.25 µg/mL, partner 3.2 µg/mL | 0.0268
S. pneumoniae D39V [1], first compound 0.25 µg/mL, partner 6.4 µg/mL | 0.0249
S. pneumoniae D39V [1], first compound 0.5 µg/mL, partner 0.4275 µg/mL | 0.977
S. pneumoniae D39V [1], first compound 0.5 µg/mL, partner 0.855 µg/mL | 0.91
S. pneumoniae D39V [1], first compound 0.5 µg/mL, partner 1.6 µg/mL | 0.0215
S. pneumoniae D39V [1], first compound 0.5 µg/mL, partner 1.71 µg/mL | 0.0797
S. pneumoniae D39V [1], first compound 0.5 µg/mL, partner 3.2 µg/mL | 0.0424
S. pneumoniae D39V [1], first compound 0.5 µg/mL, partner 6.4 µg/mL | 0.039
S. pneumoniae D39V [1], first compound 1 µg/mL, partner 0.4275 µg/mL | 0.844
S. pneumoniae D39V [1], first compound 1 µg/mL, partner 1.6 µg/mL | 0.0081
S. pneumoniae D39V [1], first compound 1 µg/mL, partner 1.71 µg/mL | 0.065
S. pneumoniae D39V [1], first compound 1 µg/mL, partner 3.2 µg/mL | 0.0126
S. pneumoniae D39V [1], first compound 1 µg/mL, partner 6.4 µg/mL | 0.0281

fitness, B. subtilis 168 [2], one replicate, main component drawn
Settings | partner 1.25 µg/mL | partner 1.6 µg/mL | partner 2.5 µg/mL | partner 3.2 µg/mL | partner 4 µg/mL | partner 5 µg/mL | partner 6.4 µg/mL | partner 8 µg/mL | partner 16 µg/mL
first compound 0.625 µg/mL | ≥ 1 | 0.646 | 0.612 | 0.0265 | 0.0271 | 0.0205 | 0.0251 | 0.0074 | 0.0185
first compound 1.25 µg/mL | 0.996 | 0.742 | 0.659 | 0.0085 | 0.0489 | 0.0315 | 0.0249 | 0.0463 | 0.0265
first compound 2.5 µg/mL | 0.888 | 0.178 | 0.451 | 0.0274 | 0.0327 | 0.0219 | 0.0137 | 0.0311 | 0.0578

main component drawn
Settings | Bliss interaction score
B. subtilis 168 [4] | 0.0614
S. aureus DSM 20231 | 0.0625
S. aureus Newman | -0.0646
S. pneumoniae D39V [3] | -0.0536

CO/N=C(\C(=O)N[C@@H]1C(=O)N2C(C(=O)O)=C(COC(C)=O)CS[C@H]12)c1csc(N)n1 [Cefotaxime] + C[C@H]1c2cccc(O)c2C(=O)C2=C(O)[C@]3(O)C(=O)C(C(N)=O)=C(O)[C@@H](N(C)C)[C@@H]3[C@@H](O)[C@@H]21 [Doxycycline]
fitness, one replicate
Settings | first compound 0.0018 µg/mL | first compound 0.0035 µg/mL | first compound 0.007 µg/mL | first compound 0.00775 µg/mL | first compound 0.0155 µg/mL | first compound 0.031 µg/mL | first compound 0.0625 µg/mL | first compound 0.125 µg/mL | first compound 0.25 µg/mL
B. subtilis 168 [2], partner 0.02 µg/mL | – | – | – | 0.855 | 0.698 | 0.508 | 0.608 | 0.538 | 0.467
B. subtilis 168 [2], partner 0.04 µg/mL | – | – | – | 0.665 | 0.523 | 0.377 | 0.511 | 0.366 | 0.304
B. subtilis 168 [2], partner 0.08 µg/mL | – | – | – | 0.278 | 0.0446 | 0.0311 | 0.343 | 0.209 | 0.252
S. pneumoniae D39V [1], partner 0.003875 µg/mL | ≥ 1 | ≥ 1 | 0.866 | – | – | – | – | – | –
S. pneumoniae D39V [1], partner 0.00775 µg/mL | ≥ 1 | 0.974 | 0.888 | – | – | – | – | – | –

fitness
Settings | first compound 0.0018 µg/mL | first compound 0.0035 µg/mL | first compound 0.007 µg/mL | first compound 0.5 µg/mL | first compound 1 µg/mL | first compound 2 µg/mL
B. subtilis 168 [2], partner 0.02 µg/mL | – | – | – | 0.288 | 0.198 | 0.157
B. subtilis 168 [2], partner 0.04 µg/mL | – | – | – | 0.204 | 0.086 | 0.0899
B. subtilis 168 [2], partner 0.08 µg/mL | – | – | – | 0.0692 | 0.0318 | 0.0723
S. pneumoniae D39V [1], partner 0.0155 µg/mL | 0.955 | 0.943 | 0.864 | – | – | –
S. pneumoniae D39V [1], partner 0.031 µg/mL | 0.814 | 0.801 | 0.794 | – | – | –

Settings | Bliss interaction score
B. subtilis 168 [4] | 0.0737
S. aureus DSM 20231 | 0.141
S. aureus Newman | 0.0304
S. pneumoniae D39V [3] | 0.0963

C[C@H]1c2cccc(O)c2C(=O)C2=C(O)[C@]3(O)C(=O)C(C(N)=O)=C(O)[C@@H](N(C)C)[C@@H]3[C@@H](O)[C@@H]21 [Doxycycline] + CN1C2=CC=CC=C2N=C3C1=CC=CC3=O [Pyocyanin]
fitness, S. pneumoniae D39V [1], one replicate
Settings | first compound 0.003875 µg/mL | first compound 0.00775 µg/mL | first compound 0.031 µg/mL | first compound 0.062 µg/mL
partner 0.325 µg/mL | ≥ 1 | ≥ 1 | – | –
partner 0.65 µg/mL | ≥ 1 | 0.997 | – | –
partner 1.3 µg/mL | 0.741 | 0.737 | 0.854 | 0.694

Settings | fitness
B. subtilis 168 [2], first compound 0.02 µg/mL, partner 1.25 µg/mL | 0.875
B. subtilis 168 [2], first compound 0.02 µg/mL, partner 2.5 µg/mL | 0.828
B. subtilis 168 [2], first compound 0.02 µg/mL, partner 5 µg/mL | 0.737
B. subtilis 168 [2], first compound 0.04 µg/mL, partner 1.25 µg/mL | 0.775
B. subtilis 168 [2], first compound 0.04 µg/mL, partner 2.5 µg/mL | 0.692
B. subtilis 168 [2], first compound 0.04 µg/mL, partner 5 µg/mL | 0.605
B. subtilis 168 [2], first compound 0.08 µg/mL, partner 1.25 µg/mL | 0.613
B. subtilis 168 [2], first compound 0.08 µg/mL, partner 2.5 µg/mL | 0.559
B. subtilis 168 [2], first compound 0.08 µg/mL, partner 5 µg/mL | 0.36
S. pneumoniae D39V [1], first compound 0.0155 µg/mL, partner 0.325 µg/mL | ≥ 1
S. pneumoniae D39V [1], first compound 0.0155 µg/mL, partner 0.65 µg/mL | ≥ 1
S. pneumoniae D39V [1], first compound 0.0155 µg/mL, partner 1.3 µg/mL | 0.823
S. pneumoniae D39V [1], first compound 0.031 µg/mL, partner 0.325 µg/mL | 0.941
S. pneumoniae D39V [1], first compound 0.031 µg/mL, partner 0.65 µg/mL | 0.97
S. pneumoniae D39V [1], first compound 0.062 µg/mL, partner 0.325 µg/mL | 0.857
S. pneumoniae D39V [1], first compound 0.062 µg/mL, partner 0.65 µg/mL | 0.87

Settings | Bliss interaction score
B. subtilis 168 [4] | 0.092
S. aureus DSM 20231 | 0.0677
S. aureus Newman | -0.0231
S. pneumoniae D39V [3] | 0.127
